Source: patent US20260256792A1, “TREATMENT OF CHRONIC SPONTANEOUS URTICARIA BY ADMINISTERING (R)-2-[3-[4-AMINO-3-(2-FLUORO-4-PHENOXY-PHENYL)PYRAZOLO[3,4-D]PYRIMIDIN-1-YL]PIPERIDINE-1-CARBONYL]-4-METHYL-4-[4-(OXETAN-3-YL)PIPERAZIN-1-YL]PENT-2-ENENITRILE” (priority 2023, published 2026)

Test system: moderate-to-severe chronic spontaneous urticaria (CSU)
Experiment: Phase 2 CSU study: urticaria activity score over 7 days (UAS7)
Type: in vivo, human
Set-up: key to UAS7 Median / UAS7 Change from baseline Median / UAS7 change from baseline, Q1 / UAS7 change from baseline, Q3 / UAS7 change from baseline, Max / UAS7 Change from baseline LS Mean (SE): UAS7 points; daily UAS score ranges 0–6 points/day, over 7 days
Excerpt: The study comprises a 12 week, randomized, double-blind, placebo-controlled, multi-center, dose-ranging efficacy and safety phase, followed by a 40 week open label extension (OLE) phase (see FIG. 1). The study consists of three phases and an optional OLE phase. […] Clinically, CSU is characterized by the spontaneous and recurrent appearance of pruritic hives. The proposed primary endpoints were the UAS7 at Week 12 in EU and EU reference countries and the ISS7 in the US. Regardless of where a participant was from, all assessments were the same. The UAS7 score is a composite score containing both the HSS7 and the ISS7. This allowed a global assessment of the two key components of urticaria: hives and itch. […] The UAS is a validated PRO measure. […] The daily UAS scores range from 0 to 6 point/day. […] Patients were to complete the UAS using the e-diary. […] The following secondary endpoints were to be analyzed using the same approach as for the primary endpoint: • Change from baseline in UAS7 at Week 4 • Change from baseline in UAS7 at Week 12 (for US and US reference countries) • Change from baseline in ISS7 at Week 12 (except US and US reference countries) • Change from baseline in HSS7 at Week 12 The following responder secondary endpoints were to be analyzed using the Cochran-Mantel-Haenszel test adjusted by region: • Proportion of participants with UAS7<6 at Week 12 • Proportion of participants with UAS7=0 at Week 12 Participants who received selected prohibited medications and/or rescue medications were to be considered as non-responders for time points after the medication usage. For other participants, all available data including those collected during the off-treatment period were to be used to determine the responder/non-responder status. Missing data were to be considered as non-responders.

[1] = Week 1, 400 mg QPM, Prior Omalizumab Use
[2] = Week 1, 400 mg QPM, omalizumab-naive participants
[3] = Week 1, 400 mg TID, ITT population
[4] = Week 1, 400 mg TID, Omalizumab-Naïve
[5] = Week 1, 400 mg TID, Prior Omalizumab Use
[6] = Week 1, 400 mg TID, omalizumab-naive participants
[7] = Week 2, 400 mg BID, ITT population
[8] = Week 2, 400 mg BID, Omalizumab-Naïve
[9] = Week 2, 400 mg BID, Prior Omalizumab Use
[10] = Week 2, 400 mg BID, omalizumab-naive participants
[11] = Week 2, 400 mg QPM, ITT population
[12] = Week 2, 400 mg QPM, Omalizumab-Naïve
[13] = Week 2, 400 mg QPM, Prior Omalizumab Use
[14] = Week 2, 400 mg QPM, omalizumab-naive participants

With `CC(C)(C=C(C#N)C(=O)N1CCC[C@@H](n2nc(-c3ccc(Oc4ccccc4)cc3F)c3c(N)ncnc32)C1)N1CCN(C2COC2)CC1` [rilzabrutinib, (R)-2-[3-[4-amino-3-(2-fluoro-4-phenoxy-phenyl)pyrazolo[3,4-d]pyrimidin-1-yl]piperidine-1-carbonyl]-4-methyl-4-[4-(oxetan-3-yl)piperazin-1-yl]pent-2-enenitrile] the “UAS7 Percent change from baseline Mean (SD)” value (“UAS7 Percent change … (SD)” for short) [1] was −39.02 (NC) %, the “UAS7 Percent change from baseline Median” value [1] was −39.02% and the “Non-responder, UAS7 reduction from baseline of 10 points or more” value (“Non-responder, UAS7 reduction” for short) [2] was 26 (70.3) n (%). The “OR for rilzabrutinib vs. placebo, UAS7 reduction of 10 points or more” value [2] was 1.510, the “RRD (%) for rilzabrutinib vs. placebo, UAS7 reduction of 10 points or more” value (“RRD (%) … UAS7 reduction of 10 points or more” below) [2] was 8.2 % and the “Responder, UAS7 reduction from baseline of 10 points or more” value [2] was 11 (29.7) n (%). For the same compound, the “Non-responder, UAS7 reduction” value [3] was 18 (43.9) n (%), the “OR for rilzabrutinib vs. placebo, UAS7 reduction of 10 points or more” value [3] was 4.196 and the “RRD (%) … UAS7 reduction of 10 points or more” value [3] was 32.5 %. The “Responder, UAS7 reduction from baseline of 10 points or more” value [3] was 23 (56.1) n (%), the “UAS7 Change from baseline Mean (SD)” value [4] was −11.57 (10.61) and the “UAS7 Change from baseline Median” value [4] was −10.00. For the same compound, the “UAS7 Mean (SD)” value [4] was 17.77 (10.26), the “UAS7 Median” value [4] was 18.00 and the “UAS7 Percent change … (SD)” value [4] was −38.05 (33.56) %. For the same compound, the “UAS7 Percent change from baseline Median” value [4] was −30.95%, the “UAS7 Change from baseline Mean (SD)” value [5] was −20.86 (9.80) and the “UAS7 Change from baseline Median” value [5] was −21.00. The “UAS7 Mean (SD)” value [5] was 12.17 (8.54), the “UAS7 Percent change … (SD)” value [5] was −63.75 (22.12) % and the “UAS7 Percent change from baseline Median” value [5] was −69.05%. For the same compound, the “Non-responder, UAS7 reduction” value [6] was 17 (48.6) n (%), the “OR for rilzabrutinib vs. placebo, UAS7 reduction of 10 points or more” value [6] was 3.580 and the “RRD (%) … UAS7 reduction of 10 points or more” value [6] was 28.5 %. For the same compound, the “Responder, UAS7 reduction from baseline of 10 points or more” value [6] was 18 (51.4) n (%), the “Non-responder, UAS7 reduction” value [7] was 19 (46.3) n (%) and the “OR for rilzabrutinib vs. placebo, UAS7 reduction of 10 points or more” value [7] was 3.388. For the same compound, the “RRD (%) … UAS7 reduction of 10 points or more” value [7] was 27.8 %, the “Responder, UAS7 reduction from baseline of 10 points or more” value [7] was 22 (53.7) n (%) and the “UAS7 Change from baseline Mean (SD)” value [8] was −10.10 (8.61). For the same compound, the “UAS7 Change from baseline Median” value [8] was −10.00, the “UAS7 Mean (SD)” value [8] was 19.59 (10.86) and the “UAS7 Median” value [8] was 18.10. The “UAS7 Percent change … (SD)” value [8] was −35.50 (31.03) %, the “UAS7 Percent change from baseline Median” value [8] was −35.71% and the “UAS7 Change from baseline Mean (SD)” value [9] was −14.00 (14.98). The “UAS7 Change from baseline Median” value [9] was −10.00, the “UAS7 Mean (SD)” value [9] was 19.00 (13.67) and the “UAS7 Median” value [9] was 23.00. The “UAS7 Percent change … (SD)” value [9] was −40.50 (43.43) %, the “UAS7 Percent change from baseline Median” value [9] was −27.44% and the “Non-responder, UAS7 reduction” value [10] was 17 (48.6) n (%). The “OR for rilzabrutinib vs. placebo, UAS7 reduction of 10 points or more” value [10] was 3.686, the “RRD (%) … UAS7 reduction of 10 points or more” value [10] was 28.9 % and the “Responder, UAS7 reduction from baseline of 10 points or more” value [10] was 18 (51.4) n (%). The “Non-responder, UAS7 reduction” value [11] was 23 (60.5) n (%), the “OR for rilzabrutinib vs. placebo, UAS7 reduction of 10 points or more” value [11] was 2.169 and the “RRD (%) … UAS7 reduction of 10 points or more” value [11] was 16.6 %. For the same compound, the “Responder, UAS7 reduction from baseline of 10 points or more” value [11] was 15 (39.5) n (%), the “UAS7 Change from baseline Mean (SD)” value [12] was −7.67 (8.84) and the “UAS7 Change from baseline Median” value [12] was −5.00. The “UAS7 Mean (SD)” value [12] was 23.44 (8.97), the “UAS7 Median” value [12] was 23.00 and the “UAS7 Percent change … (SD)” value [12] was −23.23 (26.34) %. The “UAS7 Percent change from baseline Median” value [12] was −16.67%, the “UAS7 Change from baseline Mean (SD)” value [13] was −19.00 (NC) and the “UAS7 Change from baseline Median” value [13] was −19.00. The “UAS7 Mean (SD)” value [13] was 22.00 (NC), the “UAS7 Median” value [13] was 22.00 and the “UAS7 Percent change … (SD)” value [13] was −46.34 (NC) %. For the same compound, the “UAS7 Percent change from baseline Median” value [13] was −46.34%, the “Non-responder, UAS7 reduction” value [14] was 23 (62.2) n (%) and the “OR for rilzabrutinib vs. placebo, UAS7 reduction of 10 points or more” value [14] was 2.174. For the same compound, the “RRD (%) … UAS7 reduction of 10 points or more” value [14] was 16.6 %, the “Responder, UAS7 reduction from baseline of 10 points or more” value [14] was 14 (37.8) n (%) and the “Non-responder, UAS7 reduction” value (Week 2, 400 mg TID, ITT population) was 13 (31.7) n (%).
